Reference: US20160311914A1, “USE OF B LYMPHOCYTE STIMULATOR PROTEIN ANTAGONISTS TO PROMOTE TRANSPLANTATION TOLERANCE” (The Trustees of the University of Pennsylvania, priority 2009, published 2016)

Legend:
[1] = tested on: Streptozotocin-treated diabetic BALB/c mice transplanted with B6 islets; experiment: Islet allograft survival, B6 islets transplanted into Streptozotocin-treated diabetic BALB/c mice; format: in vivo, mouse; details: FIG. 2
Description: (§1) FIG. 1 is a timeline detailing the administration of anti-B Lymphocyte Stimulator (anti-BLys™) antibodies and Rapamycin in Streptozotocin-treated diabetic mice transplanted with islets from another mouse strain.
(§2) FIG. 2 is a graph illustrating the percent survival (y-axis) versus time in days (x-axis) for Streptozotocin-treated diabetic BALB/c mice transplanted with B6 islets. Mice were administered Rapamycin (Rapa) (-□-); anti-B Lymphocyte Stimulator (anti-BLys™) antibodies and Rapamycin (anti-BLys™/Rapa) (-Δ-); or neither (no treatment; control) (-⋄-) in accordance with the timeline set forth in FIG. 1.
(§3) BLyS™ regulates mature B-lymphocyte survival and negative selection at the transitional to follicular (TR:FO) tolerance checkpoint. To determine the effect of BLyS™ in an in vivo allograft model, murine islet cells from B6 and BALB/c donor mice were transplanted into Streptozotocin-treated diabetic BALB/c and B6 mice, respectively. The recipient mice were treated with a regimen consisting of a B-lymphocyte depleting dose of a neutralizing anti-BLyS™ mAb (100 μg) on days 10 and 1 post-transplantation, followed by a weekly maintenance taper (50 μg×2 wks, 25 μg×2 wks, 10 μg×2 wks, and 5 μg×2 wks). Starting on the day of islet transplantation, the Streptozotocin treated diabetic recipients were treated with 0.5 mg/kg Rapamycin every other day for two weeks.

[2] = tested on: Streptozotocin-treated diabetic B6 mice transplanted with BALB/c islets; experiment: Islet allograft survival, BALB/c islets transplanted into Streptozotocin-treated diabetic B6 mice; format: in vivo, mouse; details: FIG. 3
Description: as §1
as §2, with “3” for “2”, “B6” for “BALB/c”, “BALB/c” for “B6”
as §3

CO[C@H]1C[C@@H]2CC[C@@H](C)[C@@](O)(O2)C(=O)C(=O)N2CCCC[C@H]2C(=O)O[C@H]([C@H](C)C[C@@H]2CC[C@@H](O)[C@H](OC)C2)CC(=O)[C@H](C)/C=C(\C)[C@@H](O)[C@@H](OC)C(=O)[C@H](C)C[C@H](C)/C=C/C=C/C=C/1C [Rapamycin]
mean survival time (MST) [1]: 61 days | mean survival time (MST) [2]: 39 days
